Activity calls are given as the source filed them. Rule as the data show it: actives have a measured IC50 and inactives only a lower limit.

These results are taken from ChEMBL document CHEMBL1201862, “PubChem BioAssay data set” (2004).

This assay has as its target T1, Apoptotic protease-activating factor 1 (Homo sapiens, UniProt O14727).
T1 sequence (O14727 whole entry): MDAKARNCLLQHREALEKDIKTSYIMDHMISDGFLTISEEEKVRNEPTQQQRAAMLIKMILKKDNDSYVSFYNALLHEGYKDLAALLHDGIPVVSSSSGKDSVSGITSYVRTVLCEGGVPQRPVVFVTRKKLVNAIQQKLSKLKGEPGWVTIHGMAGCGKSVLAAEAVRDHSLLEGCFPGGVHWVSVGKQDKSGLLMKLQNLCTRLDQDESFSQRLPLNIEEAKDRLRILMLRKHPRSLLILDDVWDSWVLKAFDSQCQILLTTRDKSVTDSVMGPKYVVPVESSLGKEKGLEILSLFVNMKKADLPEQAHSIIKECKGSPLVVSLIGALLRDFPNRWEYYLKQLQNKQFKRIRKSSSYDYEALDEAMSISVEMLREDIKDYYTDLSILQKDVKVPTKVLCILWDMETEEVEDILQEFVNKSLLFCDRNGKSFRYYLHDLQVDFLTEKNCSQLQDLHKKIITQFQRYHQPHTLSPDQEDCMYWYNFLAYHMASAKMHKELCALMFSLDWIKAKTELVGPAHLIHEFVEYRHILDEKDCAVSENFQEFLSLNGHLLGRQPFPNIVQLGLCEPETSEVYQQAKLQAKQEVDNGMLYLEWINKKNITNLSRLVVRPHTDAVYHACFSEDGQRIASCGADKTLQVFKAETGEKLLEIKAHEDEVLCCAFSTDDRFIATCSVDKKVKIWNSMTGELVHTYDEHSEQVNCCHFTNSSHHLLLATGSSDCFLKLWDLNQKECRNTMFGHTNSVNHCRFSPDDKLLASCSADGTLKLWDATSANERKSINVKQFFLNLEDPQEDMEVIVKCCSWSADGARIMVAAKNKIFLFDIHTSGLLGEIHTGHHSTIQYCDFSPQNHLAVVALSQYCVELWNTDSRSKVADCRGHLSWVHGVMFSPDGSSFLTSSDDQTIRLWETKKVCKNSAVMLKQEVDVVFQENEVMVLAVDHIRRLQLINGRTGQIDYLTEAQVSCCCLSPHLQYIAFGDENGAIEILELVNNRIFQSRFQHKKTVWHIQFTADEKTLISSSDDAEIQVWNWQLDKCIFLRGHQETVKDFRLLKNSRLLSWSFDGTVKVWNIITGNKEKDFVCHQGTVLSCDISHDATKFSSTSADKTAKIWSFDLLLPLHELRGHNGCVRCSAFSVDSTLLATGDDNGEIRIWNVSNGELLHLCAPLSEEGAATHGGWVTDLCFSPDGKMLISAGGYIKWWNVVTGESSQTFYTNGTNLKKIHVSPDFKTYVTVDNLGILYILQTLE
The assay can be described thus: SAR analysis of small molecule inhibitors of Apaf-1 in a Fluorescent assay. In kind it is functional. To be noted: read-out: IC50_Mean.

In the case of `CC(=O)c1ccc(C(=O)Nc2ccc3[nH]c(C)nc3c2)s1`, the IC50 was > 100 µM (inactive).
